pEC50: −log10 of the molar value. Read-outs that look alike come from different tables or passages of the source.
System: HBV rcDNA
Assay: HepDE19 assay with bDNA quantitation of HBV rcDNA
Assay type: cell-based, hepatitis B virus
Method in brief: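 HepDE19 cells (HepG2-derived, Tet-regulated HBV replication) were deprived of tetracycline and then exposed to compounds for 7 days at 37 °C in 0.5% DMSO, 8-point titration from 25 μM. rcDNA was quantified by bDNA and EC50/EC90 came from 4-parameter fits. CC50 was measured by CellTiter-Glo ATP content on replicate plates after 4 days.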

[1] = Hepatitis B virus, HepDE19, HepDE19 assay, inhibition of formation of rcDNA; read-out: DE-19bDNA EC50
[2] = HepDE19 assay, inhibition of formation of rcDNA; read-out: DE-19bDNA EC50
[3] = HepDE19 assay, inhibition of formation of relaxed circular DNA (rcDNA), bDNA quantitation; read-out: DE-19bDNA EC50
[4] = Hepatitis B virus, HepDE19, HepDE19 assay, inhibition of formation of relaxed circular DNA (rcDNA), bDNA quantitation; read-out: DE-19bDNA EC50
[5] = Hepatitis B virus, HepDE19, read-out: DE-19bDNA EC50 (μM), HepDE19 assay, inhibition of formation of rcDNA

## O=C(NCc1c[nH]c(=O)c2ccccc12)Nc1ccc(F)c(Cl)c1 [Compound 8, 1-(3-Chloro-4-fluorophenyl)-3-((1-oxo-1,2-dihydroisoquinolin-4-yl)methyl)urea]
[1]
  pEC50: 5.17

## COc1ncc(C(C)N(C(=O)Nc2ccc(F)c(Cl)c2)C2CC2)c2ccccc12 (single isomer, unassigned) [Compound 57, 3-(3-Chloro-4-fluorophenyl)-1-cyclopropyl-1-(1-(1-methoxyisoquinolin-4-yl)ethyl)urea]
[2]
  pEC50: 6.62

## CCCCN(C(=O)Nc1ccc(F)c(Cl)c1)C(C)c1cnc(OC)c2ccccc12 (single isomer, unassigned) [Compound 62, 1-Butyl-3-(3-chloro-4-fluorophenyl)-1-(1-(1-methoxyisoquinolin-4-yl)ethyl)urea]
[2]
  pEC50: 5.15

## CC(c1c[nH]c(=O)c2c(F)c(F)ccc12)N(C)C(=O)Nc1ccc(F)c(F)c1 (single isomer, unassigned) [Compound 434, 1-(1-(7,8-Difluoro-1-oxo-1,2-dihydroisoquinolin-4-yl)ethyl)-3-(3,4-difluorophenyl)-1-methylurea]
[3]
  pEC50: 5.49

## COc1ccc2c(C(C)N(C)C(=O)Nc3ccc(F)c(Cl)c3)c[nH]c(=O)c2c1 (single isomer, unassigned) [Compound 178, 3-(3-Chloro-4-fluorophenyl)-1-(1-(7-methoxy-1-oxo-1,2-dihydroisoquinolin-4-yl)ethyl)-1-methylurea]
[2]
  pEC50: 6.77

## COc1ccc2c(C(C)N(C)C(=O)Nc3ccc(F)c(Cl)c3)c[nH]c(=O)c2c1 (single isomer, unassigned) [Compound 177, 3-(3-Chloro-4-fluorophenyl)-1-(1-(7-methoxy-1-oxo-1,2-dihydroisoquinolin-4-yl)ethyl)-1-methylurea]
[2]
  pEC50: 5.66

## CCN(C(=O)Nc1ccc(F)c(Cl)c1)C(c1cnc(OC)c2ccccc12)C(C)C (single isomer, unassigned) [Compound 45, 3-(3-Chloro-4-fluorophenyl)-1-ethyl-1-(1-(1-methoxyisoquinolin-4-yl)-2-methylpropyl)urea]
[2]
  pEC50: 4.72

## CC(c1c[nH]c(=O)c2ccccc12)N(Cc1cncnc1)C(=O)Nc1ccc(F)c(Cl)c1 (single isomer, unassigned) [Compound 320, 3-(3-Chloro-4-fluorophenyl)-1-(1-(1-oxo-1,2-dihydroisoquinolin-4-yl)ethyl)-1-(pyrimidin-5-ylmethyl)urea]
[4]
  pEC50: 4.89

## CC(c1c[nH]c(=O)c2ccccc12)N(CC(C)(C)CO)C(=O)Nc1ccc(F)c(Cl)c1 (single isomer, unassigned) [Compound 210, 3-(3-Chloro-4-fluorophenyl)-1-(3-hydroxy-2,2-dimethylpropyl)-1-(1-(1-oxo-1,2-dihydroisoquinolin-4-yl)ethyl)urea]
[2]
  pEC50: 7.00

## COc1ncc(CN(C)C(=O)Nc2ccc(F)c(Cl)c2)c2ccccc12 [Compound 2, 3-(3-Chloro-4-fluorophenyl)-1-((1-methoxyisoquinolin-4-yl)methyl)-1-methylurea]
[1]
  pEC50: 5.70

## C[C@H](c1c[nH]c(=O)c2ccccc12)N(C)C(=O)Nc1cccc(F)c1 [Compound 93, (R)-3-(3-Fluorophenyl)-1-methyl-1-(1-(1-oxo-1,2-dihydroisoquinolin-4-yl)ethyl)urea]
[5]
  EC50: 0.52 µM

## CC(c1cnc(C(=O)O)c2ccccc12)N(C)C(=O)Nc1ccc(F)c(Cl)c1 (single isomer, unassigned) [Compound 325, 4-(1-(3-(3-Chloro-4-fluorophenyl)-1-methylureido)ethyl)isoquinoline-1-carboxylic acid]
[4]
  pEC50: 5.38

## CC(c1c[nH]c(=O)c2ccccc12)N(CC1COC(C)(C)OC1)C(=O)Nc1ccccc1 (single isomer, unassigned) [Compound 275, 1-((2,2-Dimethyl-1,3-dioxan-5-yl)methyl)-1-(1-(1-oxo-1,2-dihydroisoquinolin-4-yl)ethyl)-3-phenylurea]
[5]
  EC50: 0.83 µM

## COc1ncc(C(C)N(CC2CC2)C(=O)Nc2ccc(F)c(Cl)c2)c2ccccc12 (single isomer, unassigned) [Compound 64, 3-(3-Chloro-4-fluorophenyl)-1-(cyclopropylmethyl)-1-(1-(1-methoxyisoquinolin-4-yl)ethyl)urea]
[2]
  pEC50: 6.92

## CC(c1c[nH]c(=O)c2ccccc12)N(C[C@H](C)O)C(=O)Nc1ccc(F)c(Cl)c1 (single isomer, unassigned) [Compound 218]
[2]
  pEC50: 7.10

## CC(c1c[nH]c(=O)c2cc(F)c(F)cc12)N(C)C(=O)Nc1ccc(Cl)cc1 (single isomer, unassigned) [Compound 400, 3-(4-Chlorophenyl)-1-(1-(6,7-difluoro-1-oxo-1,2-dihydroisoquinolin-4-yl)ethyl)-1-methylurea]
read-out: DE-19bDNA EC50; HepDE19 assay, inhibition of formation of relaxed circular DNA (rcDNA), bDNA quantitation
  pEC50: 5.14

## CNC(=O)c1ncc(C(C)N(C)C(=O)Nc2ccc(F)c(Cl)c2)c2ccccc12 (single isomer, unassigned) [Compound 316, 4-(1-(3-(3-Chloro-4-fluorophenyl)-1-methylureido)ethyl)-N-methylisoquinoline-1-carboxamide]
[3]
  pEC50: 5.12

## CCN(Cc1cncc2ccccc12)C(=O)Nc1ccc(F)c(Cl)c1 [Compound 16, 3-(3-Chloro-4-fluorophenyl)-1-ethyl-1-(isoquinolin-4-ylmethyl)urea]
[1]
  pEC50: 5.77

## CCC(c1c[nH]c(=O)c2ccccc12)N(CC)C(=O)Nc1ccc(F)c(Cl)c1 (single isomer, unassigned) [Compound 39, 3-(3-Chloro-4-fluorophenyl)-1-ethyl-1-(1-(1-oxo-1,2-dihydroisoquinolin-4-yl)propyl)urea]
read-out: DE-19bDNA EC50; HepDE19 assay, inhibition of formation of rcDNA
  pEC50: 4.85

## CC(c1c[nH]c(=O)c2cc(F)c(F)cc12)N(C)C(=O)Nc1ccc2cc[nH]c2c1 (single isomer, unassigned) [Compound 485, 1-(1-(6,7-Difluoro-1-oxo-1,2-dihydroisoquinolin-4-yl)ethyl)-3-(1H-indol-6-yl)-1-methylurea]
[3]
  pEC50: 5.00

## CCN(C(=O)Nc1ccc(F)c(Cl)c1)C(c1cnc(OC)c2ccccc12)C(F)(F)F (single isomer, unassigned) [Compound 75, 3-(3-Chloro-4-fluorophenyl)-1-ethyl-1-(2,2,2-trifluoro-1-(1-methoxyisoquinolin-4-yl)ethyl)urea]
[1]
  pEC50: 5.35

## CC(c1cnc(C(N)=O)c2ccccc12)N(C)C(=O)Nc1ccc(F)c(Cl)c1 (single isomer, unassigned) [Compound 329, 4-(1-(3-(3-Chloro-4-fluorophenyl)-1-methylureido)ethyl)isoquinoline-1-carboxamide]
[3]
  pEC50: 6.92

## CC(c1c[nH]c(=O)c2ccccc12)N(C[C@@H](C)O)C(=O)Nc1ccc(F)c(Cl)c1 (single isomer, unassigned) [Compound 216]
[2]
  pEC50: 7.05

## CC(c1cnc(-n2cncn2)c2ccccc12)N(C)C(=O)Nc1ccc(F)c(Cl)c1 (racemic) [Compound 297, 1-(1-(1-(1H-1,2,4-triazol-1-yl)isoquinolin-4-yl)ethyl)-3-(3-chloro-4-fluorophenyl)-1-methylurea]
[4]
  pEC50: 6.74

## CC(c1c[nH]c(=O)c2ccccc12)N(C(=O)Nc1ccc(F)c(Cl)c1)C1CC1 (single isomer, unassigned) [Compound 67, 3-(3-Chloro-4-fluorophenyl)-1-cyclopropyl-1-(1-(1-oxo-1,2-dihydroisoquinolin-4-yl)ethyl)urea]
[2]
  pEC50: 5.10

## CC(c1c[nH]c(=O)c2c(F)cc(F)cc12)N(CCCO)C(=O)Nc1ccc(F)c(Cl)c1 (single isomer, unassigned) [Compound 374, 3-(3-Chloro-4-fluorophenyl)-1-(1-(6,8-difluoro-1-oxo-1,2-dihydroisoquinolin-4-yl)ethyl)-1-(3-hydroxypropyl)urea]
[4]
  pEC50: 8.22

## CC(c1cnc(NCc2nc[nH]n2)c2ccccc12)N(C)C(=O)Nc1ccc(F)c(Cl)c1 (single isomer, unassigned) [Compound 248, 1-(1-(1-(((1H-1,2,4-Triazol-3-yl)methyl)amino)isoquinolin-4-yl)ethyl)-3-(3-chloro-4-fluorophenyl)-1-methylurea]
[2]
  pEC50: 5.04

## CNC(=O)CCN(C(=O)Nc1ccc(F)c(Cl)c1)C(C)c1c[nH]c(=O)c2ccccc12 (single isomer, unassigned) [Compound 117, 3-(3-(3-Chloro-4-fluorophenyl)-1-(1-(1-oxo-1,2-dihydroisoquinolin-4-yl)ethyl)ureido)-N-methylpropanamide]
[2]
  pEC50: 4.89

## CC(c1c[nH]c(=O)c2ccc(F)cc12)N(CC(CO)CO)C(=O)Nc1ccc(F)c(Cl)c1 (single isomer, unassigned) [Compound 295, 3-(3-Chloro-4-fluorophenyl)-1-(1-(6-fluoro-1-oxo-1,2-dihydroisoquinolin-4-yl)ethyl)-1-(3-hydroxy-2-(hydroxymethyl)propyl)urea]
[3]
  pEC50: 5.72

## Cc1cc(NC(=O)N(C)C(C)c2c[nH]c(=O)c3c(F)c(F)ccc23)ccc1F (single isomer, unassigned) [Compound 440, 1-(1-(7,8-Difluoro-1-oxo-1,2-dihydroisoquinolin-4-yl)ethyl)-3-(4-fluoro-3-methylphenyl)-1-methylurea]
[3]
  pEC50: 6.27

## CC(c1c[nH]c(=O)c2ccccc12)N(CC(N)=O)C(=O)Nc1ccc(F)c(Cl)c1 (racemic) [Compound 128, 2-(3-(3-Chloro-4-fluorophenyl)-1-(1-(1-oxo-1,2-dihydroisoquinolin-4-yl)ethyl)ureido) acetamide]
[1]
  pEC50: 5.82

Source: patent US20230045421A1 (priority 2018, published 2023)
